Results from US20240043404A1 (AbbVie Inc., priority 2009, published 2024).

test system: RS4;11 cells; assay: RS4;11 cell viability assay (CellTiter Glo); type: cell-based, human; conditions: Homo sapiens, RS4-11, 48 h, 50,000 cells per well, 10% human serum, 48 hours; read-out: RS4; 11 EC50 Values;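 note: acute lymphoblastic leukemia line RS4,11, EC50 derived from percentage of viable cells after treatment relative to untreated controls, cell killing taken as a measure of Bcl-2 inhibition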
Protocol: The acute lymphoblastic leukemia (ALL) cell line RS4;11 was used as the primary human cell line to assess the cellular activity of Bcl-2 selective agents in vitro and their efficacy in vivo.
Cell cytotoxicity EC50 values were assessed using CellTiter Glo (Promega) according to the manufacturer's recommendations. The EC50 values were determined as a percentage of viable cells following treatment compared to the untreated control cells.

Row | SMILES | EC50
1 | CN1CCN(Nc2ccc(S(=O)(=O)NC(=O)c3ccc(N4CCN(CC5=C(c6ccc(Cl)cc6)CC(C)(C)OC5)CC4)cc3Oc3cnc4[nH]ccc4c3)cc2[N+](=O)[O-])CC1 [Example 67, 4-(4-{[4-(4-chlorophenyl)-6,6-dimethyl-5,6-dihydro-2H-pyran-3-yl]methyl}piperazin-1-yl)-N-({4-[(4-methylpiperazin-1-yl)amino]-3-nitrophenyl}sulfonyl)-2-(1H-pyrrolo[2,3-b]pyridin-5-yloxy)benzamide] | 49.5 nM
2 | CC1(C)CCC(CN2CCN(c3ccc(C(=O)NS(=O)(=O)c4ccc(OCC#CCN5CCOCC5)c([N+](=O)[O-])c4)c(Oc4cnc5[nH]ccc5c4)c3)CC2)=C(c2ccc(Cl)cc2)C1 [Example 68, 4-(4-{[2-(4-chlorophenyl)-4,4-dimethylcyclohex-1-en-1-yl]methyl}piperazin-1-yl)-N-({4-[(4-morpholin-4-ylbut-2-ynyl)oxy]-3-nitrophenyl}sulfonyl)-2-(1H-pyrrolo[2,3-b]pyridin-5-yloxy)benzamide] | 108 nM
3 | C#Cc1cc(S(=O)(=O)NC(=O)c2ccc(N3CCN(CC4=C(c5ccc(Cl)cc5)CC(C)(C)CC4)CC3)cc2Oc2cnc3[nH]ccc3c2)cnc1OCC1CCOCC1 [Example 69, 4-(4-{[2-(4-chlorophenyl)-4,4-dimethylcyclohex-1-en-1-yl]methyl}piperazin-1-yl)-N-{[5-ethynyl-6-(tetrahydro-2H-pyran-4-ylmethoxy)pyridin-3-yl]sulfonyl}-2-(1H-pyrrolo[2,3-b]pyridin-5-yloxy)benzamide] | 1720 nM
4 | CC1(C)CCC(CN2CCN(c3ccc(C(=O)NS(=O)(=O)c4ccc5nc[nH]c(=O)c5c4)c(Oc4cnc5[nH]ccc5c4)c3)CC2)=C(c2ccc(Cl)cc2)C1 [Example 70, 4-(4-{[2-(4-chlorophenyl)-4,4-dimethylcyclohex-1-en-1-yl]methyl}piperazin-1-yl)-N-[(4-oxo-3,4-dihydroquinazolin-6-yl)sulfonyl]-2-(1H-pyrrolo[2,3-b]pyridin-5-yloxy)benzamide] | > 5000 nM
5 | O=C(NS(=O)(=O)c1ccc(N[C@H]2CC[C@H](N3CCOCC3)CC2)c([N+](=O)[O-])c1)c1ccc(N2CCN(CC3=C(c4ccc(Cl)cc4)CCC4(CCCC4)C3)CC2)cc1Oc1cnc2[nH]ccc2c1 [Example 71, Trans-4-(4-{[8-(4-chlorophenyl)spiro[4.5]dec-7-en-7-yl]methyl}piperazin-1-yl)-N-({4-[(4-morpholin-4-ylcyclohexyl)amino]-3-nitrophenyl}sulfonyl)-2-(1H-pyrrolo[2,3-b]pyridin-5-yloxy)benzamide] | 91.6 nM
6 | CO[C@H]1CC[C@H](CNc2ccc(S(=O)(=O)NC(=O)c3ccc(N4CCN(CC5=C(c6ccc(Cl)cc6)CCC6(CCCC6)C5)CC4)cc3Oc3cnc4[nH]ccc4c3)cc2[N+](=O)[O-])CC1 [Example 74, Trans-4-(4-{[8-(4-chlorophenyl)spiro[4.5]dec-7-en-7-yl]methyl}piperazin-1-yl)-N-[(4-{[(4-methoxycyclohexyl)methyl]amino}-3-nitrophenyl)sulfonyl]-2-(1H-pyrrolo[2,3-b]pyridin-5-yloxy)benzamide] | 57 nM
7 | CC1(C)CCC(c2ccc(Cl)cc2)=C(CN2CCN(c3ccc(C(=O)NS(=O)(=O)c4cnc(OCC5CCOCC5)c(C#N)c4)c(Oc4cnc5[nH]ccc5c4)c3)CC2)C1 [Example 76, 4-(4-{[2-(4-chlorophenyl)-5,5-dimethylcyclohex-1-en-1-yl]methyl}piperazin-1-yl)-N-{[5-cyano-6-(tetrahydro-2H-pyran-4-ylmethoxy)pyridin-3-yl]sulfonyl}-2-(1H-pyrrolo[2,3-b]pyridin-5-yloxy)benzamide] | 511 nM
8 | CC1(C)CCC(CN2CCN(c3ccc(C(=O)NS(=O)(=O)c4ccc(OCC5COCCN5C(=O)OC(C)(C)C)c([N+](=O)[O-])c4)c(Oc4cnc5[nH]ccc5c4)c3)CC2)=C(c2ccc(Cl)cc2)C1 (centres unmarked) [Example 77, tert-butyl 3-{[4-({[4-(4-{[2-(4-chlorophenyl)-4,4-dimethylcyclohex-1-en-1-yl]methyl}piperazin-1-yl)-2-(1H-pyrrolo[2,3-b]pyridin-5-yloxy)benzoyl]amino}sulfonyl)-2-nitrophenoxy]methyl}morpholine-4-carboxylate] | 762 nM

Stronger by EC50, values ahead:

Row | EC50 | SMILES
9 | 0.25 nM | CN1CCC(CNc2ccc(S(=O)(=O)NC(=O)c3ccc(N4CCN(CC5=C(c6ccc(Cl)cc6)CC(C)(C)CC5)CC4)cc3Oc3cnc4[nH]ccc4c3)cc2[N+](=O)[O-])CC1 [Example 65, 4-(4-{[2-(4-chlorophenyl)-4,4-dimethylcyclohex-1-en-1-yl]methyl}piperazin-1-yl)-N-[(4-{[(1-methylpiperidin-4-yl)methyl]amino}-3-nitrophenyl)sulfonyl]-2-(1H-pyrrolo[2,3-b]pyridin-5-yloxy)benzamide]
10 | 18.9 nM | CC1(C)CCC(CN2CCN(c3ccc(C(=O)NS(=O)(=O)c4ccc(NCC5COCCN5)c([N+](=O)[O-])c4)c(Oc4cnc5[nH]ccc5c4)c3)CC2)=C(c2ccc(Cl)cc2)C1 (centres unmarked) [Example 66, 4-(4-{[2-(4-chlorophenyl)-4,4-dimethylcyclohex-1-en-1-yl]methyl}piperazin-1-yl)-N-({4-[(morpholin-3-ylmethyl)amino]-3-nitrophenyl}sulfonyl)-2-(1H-pyrrolo[2,3-b]pyridin-5-yloxy)benzamide]
11 | 7.51 nM | CO[C@H]1CC[C@@H](CNc2ccc(S(=O)(=O)NC(=O)c3ccc(N4CCN(CC5=C(c6ccc(Cl)cc6)CC(C)(C)OC5)CC4)cc3Oc3cnc4[nH]ccc4c3)cc2[N+](=O)[O-])CC1 [Example 72, Cis-4-(4-{[4-(4-chlorophenyl)-6,6-dimethyl-5,6-dihydro-2H-pyran-3-yl]methyl}piperazin-1-yl)-N-[(4-{[(4-methoxycyclohexyl)methyl]amino}-3-nitrophenyl)sulfonyl]-2-(1H-pyrrolo[2,3-b]pyridin-5-yloxy)benzamide]
12 | 23.7 nM | O=C(NS(=O)(=O)c1ccc(OCC2(F)CCOCC2)c([N+](=O)[O-])c1)c1ccc(N2CCN(CC3=C(c4ccc(Cl)cc4)CCC4(CCCC4)C3)CC2)cc1Oc1cnc2[nH]ccc2c1 [Example 73, 4-(4-{[8-(4-chlorophenyl)spiro[4.5]dec-7-en-7-yl]methyl}piperazin-1-yl)-N-({4-[(4-fluorotetrahydro-2H-pyran-4-yl)methoxy]-3-nitrophenyl}sulfonyl)-2-(1H-pyrrolo[2,3-b]pyridin-5-yloxy)benzamide]
13 | 15.1 nM | CC1(C)CCC(c2ccc(Cl)cc2)=C(CN2CCN(c3ccc(C(=O)NS(=O)(=O)c4ccc(NCC5CCOCC5)c([N+](=O)[O-])c4)c(Oc4cnc5[nH]ccc5c4)c3)CC2)C1 [Example 75, 4-(4-{[2-(4-chlorophenyl)-5,5-dimethylcyclohex-1-en-1-yl]methyl}piperazin-1-yl)-N-({3-nitro-4-[(tetrahydro-2H-pyran-4-ylmethyl)amino]phenyl}sulfonyl)-2-(1H-pyrrolo[2,3-b]pyridin-5-yloxy)benzamide]
14 | 12.5 nM | CC1(C)CCC(CN2CCN(c3ccc(C(=O)NS(=O)(=O)c4ccc(OCC5COCCN5)c([N+](=O)[O-])c4)c(Oc4cnc5[nH]ccc5c4)c3)CC2)=C(c2ccc(Cl)cc2)C1 (centres unmarked) [Example 78, 4-(4-{[2-(4-chlorophenyl)-4,4-dimethylcyclohex-1-en-1-yl]methyl}piperazin-1-yl)-N-{[4-(morpholin-3-ylmethoxy)-3-nitrophenyl]sulfonyl}-2-(1H-pyrrolo[2,3-b]pyridin-5-yloxy)benzamide]
